Measurements: DBAASP
In brackets after ≈: the same amount, converted by molar mass.

How the values were obtained:
Assay in all cases: ≥ marks a high value that may be exact or a test limit, other limits are often not marked, values filed in µg/mL are converted to µM
[1] = tested on: Staphylococcus aureus ATCC 29213
[2] = tested on: Escherichia coli ATCC 25922
[3] = tested on: Pseudomonas aeruginosa ATCC 27853
[4] = tested on: Escherichia coli
[5] = tested on: Staphylococcus aureus

Compound | MIC [1] | MIC [2] | MIC [3] | MIC [4] | MIC [5]
CC[C@H](C)[C@H](NC(=O)[C@H](CCCN=C(N)N)NC(=O)[C@H](CCC(N)=O)NC(=O)[C@@H](NC(=O)[C@@H](NC(=O)[C@H](CCCN=C(N)N)NC(=O)[C@H](CCCCN)NC(=O)[C@@H](N)Cc1ccccc1)[C@@H](C)CC)C(C)C)C(=O)N[C@@H](CCCCN)C(=O)N[C@@H](CC(=O)O)C(=O)N[C@@H](CO)C(=O)N[C@@H](CC(C)C)C(=O)N[C@@H](CCCN=C(N)N)C(=O)O [FKRIVQRIKDSLR] | > 40 µM | 10 µM (≈ 16.6 µg/mL) | – | – | –
CC[C@H](C)[C@H](NC(=O)CN)C(=O)NCC(=O)N[C@@H](CCCCN)C(=O)N[C@@H](Cc1ccccc1)C(=O)N[C@@H](CC(C)C)C(=O)N[C@@H](Cc1cnc[nH]1)C(=O)N[C@@H](CO)C(=O)N[C@@H](C)C(=O)N[C@@H](CCCCN)C(=O)N[C@@H](CCCCN)C(=O)N1CCC[C@H]1C(=O)NCC(=O)N[C@@H](CCCCN)C(=O)N[C@@H](C)C(=O)N[C@@H](Cc1ccccc1)C(=O)N[C@H](C(=O)NCC(=O)N[C@@H](CCC(=O)O)C(=O)N[C@H](C(=O)N[C@@H](CCSC)C(=O)N[C@@H](CC(N)=O)C(=O)N[C@@H](CO)C(N)=O)[C@@H](C)CC)C(C)C [GIGKFLHSAKKPGKAFVGEIMNS] | 106 µM (≈ 256 µg/mL) | 26.5 µM (≈ 64 µg/mL) | 53 µM (≈ 128 µg/mL) | – | –
NCC(=O)N[C@@H](CCCN=C(N)N)C(=O)N[C@@H](CCCN=C(N)N)C(=O)N1CCC[C@H]1C(=O)N[C@@H](CCCN=C(N)N)C(=O)N1CCC[C@H]1C(=O)N[C@@H](CCCN=C(N)N)C(=O)N1CCC[C@H]1C(=O)N[C@@H](CCCN=C(N)N)C(=O)N1CCC[C@H]1C(=O)N[C@@H](Cc1c[nH]c2ccccc12)C(=O)N[C@@H](Cc1c[nH]c2ccccc12)C(=O)N[C@@H](Cc1c[nH]c2ccccc12)C(N)=O [GRRPRPRPRPWWW] | 40 µM (≈ 72.1 µg/mL) | 20 µM (≈ 36 µg/mL) | 80 µM (≈ 144 µg/mL) | – | –
CC(=O)N[C@@H](CCCCN)C(=O)N[C@@H](CC(C)C)C(=O)N[C@@H](CC(C)C)C(=O)N[C@@H](CCCCN)C(=O)N[C@@H](CC(C)C)C(=O)N[C@@H](CC(C)C)C(=O)N[C@@H](CCCCN)C(=O)N[C@@H](CCCCN)C(=O)N[C@@H](CC(C)C)C(=O)N1CCC[C@H]1C(=O)N[C@@H](CCCCN)C(=O)N[C@@H](CC(C)C)C(=O)N[C@@H](CC(C)C)C(=O)N[C@@H](CCCCN)C(N)=O [KLLKLLKKLPKLLK] | 40 µM (≈ 68.7 µg/mL) | 40 µM (≈ 68.7 µg/mL) | – | – | –
CC(=O)N[C@@H](CCCCN)C(=O)N[C@@H](CC(C)C)C(=O)N1CCC[C@H]1C(=O)N[C@@H](CCCCN)C(=O)N[C@@H](CC(C)C)C(=O)N[C@@H](CC(C)C)C(=O)N[C@@H](CCCCN)C(=O)N[C@@H](CCCCN)C(=O)N[C@@H](CC(C)C)C(=O)N[C@@H](CC(C)C)C(=O)N[C@@H](CCCCN)C(=O)N[C@@H](CC(C)C)C(=O)N[C@@H](CC(C)C)C(=O)N[C@@H](CCCCN)C(N)=O [KLPKLLKKLLKLLK] | 10 µM (≈ 17.2 µg/mL) | 10 µM (≈ 17.2 µg/mL) | – | – | –
CC(=O)N[C@@H](CCCCN)C(=O)N1CCC[C@H]1C(=O)N[C@@H](CC(C)C)C(=O)N[C@@H](CCCCN)C(=O)N[C@@H](CC(C)C)C(=O)N[C@@H](CC(C)C)C(=O)N[C@@H](CCCCN)C(=O)N[C@@H](CCCCN)C(=O)N[C@@H](CC(C)C)C(=O)N[C@@H](CC(C)C)C(=O)N[C@@H](CCCCN)C(=O)N[C@@H](CC(C)C)C(=O)N[C@@H](CC(C)C)C(=O)N[C@@H](CCCCN)C(N)=O [KPLKLLKKLLKLLK] | 7.07 µM (≈ 12.1 µg/mL) | 7.07 µM (≈ 12.1 µg/mL) | – | – | –

Now from value to molecule:

MIC [1] | MIC [2] | MIC [3] | MIC [4] | MIC [5] | Compound
10 µM (≈ 17.8 µg/mL) | 10 µM (≈ 17.8 µg/mL) | – | – | – | CC(C)C[C@H](NC(=O)[C@H](CCCCN)NC(=O)[C@H](CC(C)C)NC(=O)[C@H](CC(C)C)NC(=O)[C@H](CCCCN)NC(=O)[C@H](CCCCN)NC(=O)[C@H](CC(C)C)NC(=O)[C@H](CC(C)C)NC(=O)[C@H](CCCCN)NC(=O)[C@H](C)NC(=O)[C@H](CC(C)C)NC(=O)[C@H](CCCCN)NC(=O)[C@H](CCCCN)NC(=O)[C@@H](N)CC(C)C)C(=O)N[C@@H](C)C(=O)NCC(=O)O [LKKLAKLLKKLLKLAG]
10 µM (≈ 17.8 µg/mL) | 10 µM (≈ 17.8 µg/mL) | – | – | – | CC(C)C[C@H](NC(=O)[C@H](C)NC(=O)[C@H](CCCCN)NC(=O)[C@H](CC(C)C)NC(=O)[C@H](CC(C)C)NC(=O)[C@H](CCCCN)NC(=O)[C@H](CCCCN)NC(=O)[C@@H](N)CC(C)C)C(=O)N[C@@H](CCCCN)C(=O)N[C@@H](CCCCN)C(=O)N[C@@H](CC(C)C)C(=O)N[C@@H](CC(C)C)C(=O)N[C@@H](CCCCN)C(=O)N[C@@H](CC(C)C)C(=O)N[C@@H](C)C(=O)NCC(=O)O [LKKLLKALKKLLKLAG]
5 µM (≈ 8.82 µg/mL) | 2.5 µM (≈ 4.41 µg/mL) | – | – | – | CC(C)C[C@H](NC(=O)[C@H](CCCCN)NC(=O)[C@H](CC(C)C)NC(=O)[C@H](CC(C)C)NC(=O)[C@H](CCCCN)NC(=O)[C@H](CCCCN)NC(=O)[C@@H](N)CC(C)C)C(=O)NCC(=O)N[C@@H](CCCCN)C(=O)N[C@@H](CCCCN)C(=O)N[C@@H](CC(C)C)C(=O)N[C@@H](CC(C)C)C(=O)N[C@@H](CCCCN)C(=O)N[C@@H](CC(C)C)C(=O)N[C@@H](C)C(=O)NCC(=O)O [LKKLLKLGKKLLKLAG]
14.1 µM (≈ 24.5 µg/mL) | 14.1 µM (≈ 24.5 µg/mL) | – | – | – | CC(=O)N[C@@H](CC(C)C)C(=O)N[C@@H](CCCCN)C(=O)N[C@@H](CCCCN)C(=O)N[C@@H](CC(C)C)C(=O)N[C@@H](CC(C)C)C(=O)N[C@@H](CCCCN)C(=O)N[C@@H](CC(C)C)C(=O)N[C@@H](CC(C)C)C(=O)N[C@@H](CCCCN)C(=O)N[C@@H](CCCCN)C(=O)N[C@@H](CC(C)C)C(=O)N[C@@H](CC(C)C)C(=O)N[C@@H](CCCCN)C(=O)N[C@@H](CC(C)C)C(N)=O [LKKLLKLLKKLLKL]
40 µM (≈ 66.4 µg/mL) | 7.07 µM (≈ 11.7 µg/mL) | – | – | – | CC(=O)N[C@@H](CC(C)C)C(=O)N[C@@H](CCCCN)C(=O)N[C@@H](CCCCN)C(=O)N1CCC[C@H]1C(=O)N[C@@H](CC(C)C)C(=O)N[C@@H](CCCCN)C(=O)N[C@@H](CC(C)C)C(=O)NCC(=O)N[C@@H](CCCCN)C(=O)N[C@@H](CCCCN)C(=O)N[C@@H](CC(C)C)C(=O)N[C@@H](CC(C)C)C(=O)N[C@@H](CCCCN)C(=O)N[C@@H](CC(C)C)C(N)=O [LKKPLKLGKKLLKL]
> 52.2 µM | 26.1 µM (≈ 32 µg/mL) | 26.1 µM (≈ 32 µg/mL) | – | – | CC[C@H](C)[C@H](NC(=O)[C@H](CCCN=C(N)N)NC(=O)[C@H](CCCCN)NC(=O)[C@@H](N)CCC(N)=O)C(=O)N[C@@H](CCCN=C(N)N)C(=O)N[C@H](C(=O)N[C@@H](CCCN=C(N)N)C(=O)N[C@@H](CC(C)C)C(=O)N[C@@H](CO)C(=O)N[C@@H](C)C(=O)O)C(C)C [QKRIRVRLSA]
– | 2 µM (≈ 3.7 µg/mL) | – | 5.4 µM (≈ 9.99 µg/mL) | 2.7 µM (≈ 5 µg/mL) | CC(C)C[C@H](NC(=O)[C@H](Cc1ccccc1)NC(=O)[C@H](C)NC(=O)[C@H](Cc1c[nH]c2ccccc12)NC(=O)[C@H](Cc1c[nH]c2ccccc12)NC(=O)[C@H](Cc1c[nH]c2ccccc12)NC(=O)[C@H](C)NC(=O)[C@H](Cc1ccccc1)NC(=O)[C@H](CCCN=C(N)N)NC(=O)[C@H](CCCN=C(N)N)NC(=O)[C@@H](N)C(C)C)C(=O)N[C@@H](CCCN=C(N)N)C(=O)N[C@@H](CCCN=C(N)N)C(N)=O [VRRFAWWWAFLRR]
– | 2.83 µM (≈ 5.3 µg/mL) | – | 10.7 µM (≈ 20 µg/mL) | 2.66 µM (≈ 5 µg/mL) | CC(C)C[C@H](NC(=O)[C@H](Cc1ccccc1)NC(=O)[C@H](C)NC(=O)[C@H](Cc1c[nH]c2ccccc12)NC(=O)[C@H](Cc1c[nH]c2ccccc12)NC(=O)[C@H](Cc1c[nH]c2ccccc12)NC(=O)[C@@H]1CCCN1C(=O)[C@H](Cc1ccccc1)NC(=O)[C@H](CCCN=C(N)N)NC(=O)[C@H](CCCN=C(N)N)NC(=O)[C@@H](N)C(C)C)C(=O)N[C@@H](CCCN=C(N)N)C(=O)N[C@@H](CCCN=C(N)N)C(N)=O [VRRFPWWWAFLRR]
